One test relates to NCI-H460 cells. In words: Proliferation assay, NCI-H460 (crystal violet). The settings on record: Homo sapiens, 96 h; NCI-H460, 4 days; read-out: Inhibition of NCI-H460 cell proliferation IC50. It is filed as cell-based. The protocol:
Cultivated tumour cells (HeLa, human cervical tumour cells, ATCC CCL-2; NCI-H460, human non-small cell lung carcinoma cells, ATCC HTB-177; DU 145, hormone-independent human prostate carcinoma cells, ATCC HTB-81; HeLa-MaTu-ADR, multidrug-resistant human cervical carcinoma cells, EPO-GmbH Berlin; Caco-2, human colorectal carcinoma cells, ATCC HTB-37; B16F10, mouse melanoma cells, ATCC CRL-6475) were plated at a density of 5,000 cells/well (DU145, HeLa-MaTu-ADR), 3,000 cells/well (NCI-H460, HeLa), 1,500 cells/well (Caco-2), or 1,000 cells/well (B16F10) in a 96-well multititer plate in 200 μL of their respective growth medium supplemented 10% fetal calf serum. After 24 hours, the cells of one plate (zero-point plate) were stained with crystal violet (see below), while the medium of the other plates was supplemented with the test substances in various concentrations (0 μM, as well as in the range of 0.0001-10 μM; the final concentration of the solvent dimethyl sulfoxide was adjusted to 0.1%) using a Hewlett-Packard HP D300 Digital Dispenser. The cells were incubated for 4 days in the presence of test substances. Cell proliferation was determined by staining the cells with crystal violet: the cells were fixed by adding 20 μl/measuring point of an 11% glutaric aldehyde solution for 15 minutes at room temperature. After three washing cycles of the fixed cells with water, the plates were dried at room temperature. The cells were stained by adding 100 μl/measuring point of a 0.1% crystal violet solution (pH 3.0). After three washing cycles of the stained cells with water, the plates were dried at room temperature. The dye was dissolved by adding 100 μl/measuring point of a 10% acetic acid solution. The extinction was determined by photometry at a wavelength of 595 nm. The change of cell number, in percent, was calculated by normalization of the measured values to the extinction values of the zero-point plate (=0%) and the extinction of the untreated (0 Wm) cells (=100%). The IC50 values (inhibitory concentration at 50% of maximal effect) were determined by means of a 4 parameter fit.

For test [1], the target named is T1, human PTEFb (CDK9/Cyclin T1) (Homo sapiens, UniProt P50750).
T1 construct: purchased ProQinase, Freiburg, Germany
Nature of the test: Surface Plasmon Resonance PTEFb. It is filed as binding. The conditions noted are these: SPR, 37° C.; for residence time: 1/koff, read-out: Target residence time; for residence time / koff: * = arithmetic mean; for Kd: * = arithmetic mean of more than one value, read-out: Equilibrium dissociation constant KD; for koff: < = below what is resolvable, read-out: Dissociation rate constant koff. The text has this:
8. Surface Plasmon Resonance PTEFb
The ability of the compounds according to the invention to bind human PTEFb may be determined using surface plasmon resonance (SPR). KD values and koff values may be measured using a Biacore® T200 instrument (GE Healthcare, Uppsala, Sweden).
For SPR measurements, recombinant human PTEFb (CDK9/Cyclin T1 recombinant human active protein kinase purchased from ProQinase, Freiburg, Germany) is immobilized using standard amine coupling (Johnsson B et al, Anal Biochem. 1991 Nov. 1; 198(2):268-77). Briefly, carboxymethylated dextran biosensor chips (CM7, GE Healthcare) are activated with N-ethyl-N′-(3-dimethylaminopropyl)-carbodiimide hydrochloride (EDC) and N-hydroxysuccinimide (NHS) according to the supplier's instructions. Human PTEFb is diluted in 1×HBS-EP+(GE Healthcare) and injected on the activated chip surface. Subsequently, a 1:1 solution of 1 M ethanolamine-HCl (GE Healthcare) and 1×HBS-EP is injected to block unreacted groups, resulting in approximately 4000 response units (RU) of immobilized protein. A reference surface is generated by treatment with NHS-EDC and ethanolamine-HCl. Compounds are dissolved in 100% dimethylsulfoxide (DMSO, Sigma-Aldrich, Germany) to a concentration of 10 mM and subsequently diluted in running buffer (1×HBS-EP+pH 7.4 [generated from HBS-EP+Buffer 10×(GE Healthcare): 0.1 M HEPES, 1.5 M NaCl, 30 mM EDTA and 0.5% v/v Surfactant P20], 1% v/v DMSO). For kinetic measurements, serial dilutions of compound (0.078 nM up to 25 nM) are injected over immobilized protein. Binding kinetics is measured at 37° C. with a flow rate of 100 μl/min in running buffer. Compound concentrations are injected for 70 s followed by a dissociation time of 1100 s. The resulting sensorgrams are double-referenced against the reference surface as well as against blank injections.
The double-referenced sensorgrams are fit to a simple reversible Langmuir 1:1 reaction mechanism as implemented in the Biacore® T200 evaluation software 2.0 (GE Healthcare). In cases were full compound dissociation has not occurred at the end of the dissociation phase, the Rmax parameter (response at saturation) is fit as local variable. In all other cases, Rmax is fit as global variable.

A value given as a limit tells only on which side of the number the result lay.

T1 sequence (P50750 whole entry): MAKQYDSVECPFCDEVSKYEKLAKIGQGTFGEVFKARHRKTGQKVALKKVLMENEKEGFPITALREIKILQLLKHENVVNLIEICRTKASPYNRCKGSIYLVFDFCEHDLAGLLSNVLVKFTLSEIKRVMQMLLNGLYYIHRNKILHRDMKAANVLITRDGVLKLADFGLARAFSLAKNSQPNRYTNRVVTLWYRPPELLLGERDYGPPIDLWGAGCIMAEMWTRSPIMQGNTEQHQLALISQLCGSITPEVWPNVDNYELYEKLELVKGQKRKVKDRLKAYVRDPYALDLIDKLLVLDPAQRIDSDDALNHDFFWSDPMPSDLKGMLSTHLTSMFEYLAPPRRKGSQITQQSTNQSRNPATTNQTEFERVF
T1 sequence (O60563 whole entry partner): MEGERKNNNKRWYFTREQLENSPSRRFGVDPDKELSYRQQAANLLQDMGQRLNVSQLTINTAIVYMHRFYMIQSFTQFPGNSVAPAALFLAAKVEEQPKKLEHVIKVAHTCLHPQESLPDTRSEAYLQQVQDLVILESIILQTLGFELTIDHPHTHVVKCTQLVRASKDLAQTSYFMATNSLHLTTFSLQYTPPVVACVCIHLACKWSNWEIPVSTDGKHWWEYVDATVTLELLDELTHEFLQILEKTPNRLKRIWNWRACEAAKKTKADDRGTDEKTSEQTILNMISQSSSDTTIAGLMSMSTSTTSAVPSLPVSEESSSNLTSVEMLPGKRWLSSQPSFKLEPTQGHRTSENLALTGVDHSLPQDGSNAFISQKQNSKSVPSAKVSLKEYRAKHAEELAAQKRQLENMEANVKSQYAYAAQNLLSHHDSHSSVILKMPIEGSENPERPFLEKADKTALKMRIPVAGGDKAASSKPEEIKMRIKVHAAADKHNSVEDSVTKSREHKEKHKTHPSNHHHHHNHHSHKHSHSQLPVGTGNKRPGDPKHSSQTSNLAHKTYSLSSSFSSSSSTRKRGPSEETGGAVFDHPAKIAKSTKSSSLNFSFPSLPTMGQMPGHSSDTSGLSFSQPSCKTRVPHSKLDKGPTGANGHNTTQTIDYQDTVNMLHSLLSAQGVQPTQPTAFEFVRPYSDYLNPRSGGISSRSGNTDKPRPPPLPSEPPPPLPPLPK

Consider `CC(C)(C)OC(=O)N=S(C)(=O)Cc1cc2cc(c1)OCCCCNc1cc(ccc1F)-c1nc(ncc1F)N2` (racemic) [Example 1, (rac)-tert-butyl [{[3,20-difluoro-13-oxa-5,7,18,25-tetraazatetracyclo[17.3.1.1^2,6.1^8,12]pentacosa-1(23),2(25),3,5,8(24),9,11,19,21-nonaen-10-yl]methyl}(methyl)oxido-λ^6-sulfanylidene]carbamate], for which, in the test on NCI-H460 cells, the IC50 came out at 33 nM.

For the compound `CS(=N)(=O)Cc1cc2cc(c1)OCCCCNc1cc(ccc1F)-c1nc(ncc1F)N2` (racemic) [Example 2, (rac)-3,20-difluoro-10-[(S-methylsulfonimidoyl)methyl]-13-oxa-5,7,18,25-tetraazatetracyclo[17.3.1.1^2,6.1^8,12]pentacosa-1(23),2(25),3,5,8(24),9,11,19,21-nonaene], the IC50 in the test on NCI-H460 cells is 9.2 nM. Further, in test [1], the residence time (usually the mean lifetime of the complex, commonly the reciprocal of the off-rate) is above 208 min; the Kd (as a rule, a measure of binding affinity in units of concentration) was 0.074 nM; the koff – broadly, the first-order rate constant of dissociation – was below 8e-05 s⁻¹.

Turning to `CS(=N)(=O)Cc1cc2cc(c1)OCCCNc1cc(ccc1F)-c1nc(ncc1F)N2` (racemic) [Example 3, (rac)-3,19-difluoro-10-[(S-methylsulfonimidoyl)methyl]-13-oxa-5,7,17,24-tetraazatetracyclo[16.3.1.1^2,6.1^8,12]tetracosa-1(22),2(24),3,5,8(23),9,11,18,20-nonaene], the IC50 with NCI-H460 cells came to 25 nM. Moreover, in test [1], the residence time is 13 min, the Kd came out at 0.38 nM and the koff worked out at 0.0012 s⁻¹.

With `CC1CCCNc2cc(ccc2F)-c2nc(ncc2F)Nc2cc(CS(C)(=O)=O)cc(c2)O1` (racemic) [Example 8, (rac)-3,20-difluoro-14-methyl-10-[(methylsulfonyl)methyl]-13-oxa-5,7,18,25-tetraazatetracyclo[17.3.1.1^2,6.1^8,12]pentacosa-1(23),2(25),3,5,8(24),9,11,19,21-nonaene], in test [1], the residence time was found to be 33 min, the Kd turned out to be 0.28 nM and the koff worked out at 0.0005 s⁻¹.

Values taken from patent US11691986B2, “PTEFB inhibiting macrocyclic compounds” (Bayer Aktiengesellschaft, priority 2017, dated 2023).
